For this series the following is noted: Crystal; visual observation.

Numbers after ± are expanded uncertainties.

On to `OC[C@@H](O)[C@H](O)[C@@H](O)CO` [xylitol], for which the Normal melting temperature is 94.50 ± 1.1 °C.
